Literature values as cited in US20230190604A1, “DERMATOLOGIC/PERSONAL CARE CONCENTRATES” (Vantage Specialty Ingredients, Inc., priority 2021, published 2023).

What was measured:
[1] = water as solvent
[2] = ethanol as solvent, "normal temperatures"

Compound: O=C(O)CCCCCCCC(=O)O [azelaic acid]
- maximum concentration of azelaic acid dissolved in water [1]: about 0.24 % by weight (w/w)
- stability of azelaic acid in ethanol [2]: unstable
